Blank lines part the entries; values can stand above or below the molecule they belong to.
Assays:
xanthine oxidase (XO) [1] = biological target: T1, xanthine oxidase (XO) (Bos taurus, UniProt P80457); experiment: competition with oxidation of I, fluorimetric assay, pH […]; type: biochemical; design: gene XDH; commercial XO from bovine milk (purified enzyme)
xanthine oxidase (XO) [2] = biological target: T1, xanthine oxidase (XO); experiment: isothermal titration calorimetry (estimate only); also oxidation kinetics, apparent Km […] at pH […] and […] at pH […]; type: binding; design: gene XDH; commercial XO from bovine milk
xanthine oxidase (XO) [3] = biological target: T1, xanthine oxidase (XO); experiment: isothermal titration calorimetry (estimate only); weak substrate in oxidation assay; type: binding; design: gene XDH; commercial XO from bovine milk
Source text: isothermal titration calorimetry (estimate only); weak substrate in oxidation assay on xanthine oxidase (XO) | the endo- and exothermic processes were again observed.

[4] = biological target: T2, purine nucleoside phosphorylase (WT PNP) (Escherichia coli, UniProt P0ABP8); experiment: crystal structure ([…] Å) and isothermal titration calorimetry; type: binding
T2 construct: gene deoD; recombinant wild-type E. coli PNP, hexamer
T2 sequence (P0ABP8 2-239): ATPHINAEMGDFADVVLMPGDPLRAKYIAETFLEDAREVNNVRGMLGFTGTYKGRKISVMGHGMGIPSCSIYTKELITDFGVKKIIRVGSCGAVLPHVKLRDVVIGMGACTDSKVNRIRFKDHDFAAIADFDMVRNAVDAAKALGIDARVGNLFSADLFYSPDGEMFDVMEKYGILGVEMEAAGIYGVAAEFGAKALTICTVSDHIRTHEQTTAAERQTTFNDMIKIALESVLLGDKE

T1 sequence (P80457 2-1332): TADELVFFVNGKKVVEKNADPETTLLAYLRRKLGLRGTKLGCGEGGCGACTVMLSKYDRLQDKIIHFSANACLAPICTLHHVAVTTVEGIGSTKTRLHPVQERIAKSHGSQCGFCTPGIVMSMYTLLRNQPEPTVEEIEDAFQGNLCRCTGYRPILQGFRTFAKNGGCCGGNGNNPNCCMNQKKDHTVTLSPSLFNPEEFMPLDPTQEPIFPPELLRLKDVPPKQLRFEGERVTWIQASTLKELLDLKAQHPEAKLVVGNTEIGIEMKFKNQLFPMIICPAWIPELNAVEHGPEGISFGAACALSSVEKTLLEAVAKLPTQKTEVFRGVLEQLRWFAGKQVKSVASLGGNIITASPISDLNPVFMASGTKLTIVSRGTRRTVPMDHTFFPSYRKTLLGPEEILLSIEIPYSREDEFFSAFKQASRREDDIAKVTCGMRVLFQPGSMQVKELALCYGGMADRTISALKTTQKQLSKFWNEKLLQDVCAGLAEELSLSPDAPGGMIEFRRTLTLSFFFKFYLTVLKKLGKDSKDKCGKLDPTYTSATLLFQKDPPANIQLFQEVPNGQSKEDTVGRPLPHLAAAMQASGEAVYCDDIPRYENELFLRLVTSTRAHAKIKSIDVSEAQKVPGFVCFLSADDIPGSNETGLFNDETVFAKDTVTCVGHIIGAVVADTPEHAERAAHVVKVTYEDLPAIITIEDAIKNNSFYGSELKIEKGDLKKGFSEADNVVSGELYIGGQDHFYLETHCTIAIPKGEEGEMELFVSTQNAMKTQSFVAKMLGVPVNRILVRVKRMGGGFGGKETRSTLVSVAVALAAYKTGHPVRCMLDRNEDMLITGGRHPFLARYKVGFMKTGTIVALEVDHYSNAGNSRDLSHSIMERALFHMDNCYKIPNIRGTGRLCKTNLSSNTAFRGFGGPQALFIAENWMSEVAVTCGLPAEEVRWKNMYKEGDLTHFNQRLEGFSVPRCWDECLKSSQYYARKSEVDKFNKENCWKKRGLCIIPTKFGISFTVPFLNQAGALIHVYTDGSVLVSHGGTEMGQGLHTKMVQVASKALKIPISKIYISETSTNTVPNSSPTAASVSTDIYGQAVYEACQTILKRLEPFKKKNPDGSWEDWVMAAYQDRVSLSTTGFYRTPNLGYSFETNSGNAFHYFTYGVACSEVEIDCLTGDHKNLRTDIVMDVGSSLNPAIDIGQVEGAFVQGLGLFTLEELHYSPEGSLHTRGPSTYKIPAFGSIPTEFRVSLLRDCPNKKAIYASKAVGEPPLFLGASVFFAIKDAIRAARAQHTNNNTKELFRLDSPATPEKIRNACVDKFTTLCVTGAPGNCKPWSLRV

- Ki (xanthine oxidase (XO) [1]): 3 µM
Structure (SMILES): O=c1[nH]c(=O)c2[nH]cnc2[nH]1 [xanthine]

- Kd (xanthine oxidase (XO) [2]): ~0.0022 µM
Structure (SMILES): c1cn2cc3nc[nH]c3nc2n1 [I, 1,N^2-ε2APu]

Structure (SMILES): c1cn2c(n1)ncc1nc[nH]c12 [II, N^2,3-ε2APu]
- Kd (xanthine oxidase (XO) [3]): ~0.0075 µM
- Kd [4]: 36.2 µM

Source: paper PMC11477426, “Interaction of Tri-Cyclic Nucleobase Analogs with Enzymes of Purine Metabolism: Xanthine Oxidase and Purine Nucleoside Phosphorylase” (International Journal of Molecular Sciences, 2024)
